Measurements from patent US20080249066A1, “ANTIVIRAL COMPOUNDS AND COMPOSITIONS” (ARDEA BIOSCIENCES, INC., priority 2007, published 2008).
Structures can show the parent of a compound that is named as a salt. Where two headings read alike, the source gives them in different places.

Assays:
Format in all cases: cell-based
[1] = test system: HIV-1 virus strain 20678; assay: Inhibition of infection of primary HIV-1 isolate 20678 in PBMCs (p24 antigen ELISA); details: for EC50: Human immunodeficiency virus 1, 192 h, PBMC infected with virus 20678, p24 production at day 8; for Selectivity Index: GI50 (Diff.CD34+) divided by EC50 (PBMC), values fit AVG GI50 / EC50 of virus 20678
Excerpt: (§1) Monocyte/macrophages represent a major reservoir of HIV-1 in the infected human host. See L. Epstein et al., AIDS Res. 14, 447 (1984). However, these cells tend to be resistant to dideoxynucleoside prodrugs due to low levels of kinases needed to activate the prodrugs. See C. Pemo et al., J. Exp. Med. 168, 1111 (1984). To test the compounds described herein in these cells, PBMC cells infected for 7 days with two different virus strains (20678 and JR-FL) and under PHA stimulation for 4 days were treated with AZT, FOZ ISO 850, FOZ ISO 851, and FOZ MIX Na.
(§2) PBMC's were prepared as follows: 50 ml of whole human blood was centrifuged at 1000 g for 15 min, supernatant (plasma) removed, and cells resuspended in 80 ml PBS. 20 ml resuspended blood was then layered onto 25 ml Ficoll-Paque Plus (GE Healthcare, Uppsala Sweden), and centrifuged at 400 g for 30 min. The PBMC layer at the interface was collected, washed two times with 20 ml PBS, and resuspended in 20 ml RPMI/10% FBS.
(§3) Day 5-Stimulation of PBMC: PBMCs were grown in 50 ml of stimulation medium (RPMI, 15% FBS, 5 units/ml of IL-2, and 6 ug/ml of PHA) for 5 days.
(§4) Day 1-Infection of PBMC: PBMCs were counted with a hemacytometer. Stimulation medium was removed by centrifugation at RT, 1,500 rpm/5′ and cells resuspended in growth medium (RPMI, 15% of FBS, 10 units/ml of IL-2). PBMCs were infected with JR-FL or 20678 as follows: for one 96-well plate, 20 millions cells were infected with 1 ml of each virus (use 10 ul of virus and 200,000 cell per well) in a 4.5 ml-volume in a 50-ml conical tube. Cells were incubated for 3 hrs at 37 °C. with frequent shaking. Aliqouts of 50 ul of a 4× solution of the compounds to be tested were added to the 96-well plates. After 3 hr of incubation, infected cells were washed two times with PBS and one time with culture medium by spinning down the cells at 1500 rpm for 5 minutes at room temperature. After the last wash cells were resuspended in 15 ml of growth medium. 150 ul of cell suspension were delivered into each well. Cells were incubated for 7 days at 37 °C.
(§5) Day 5-Medium change: Cells were resuspended by pipetting and 100 ul of medium was removed. 100 ul of fresh medium was added with 1× compound. Cells were incubated for 3 more days at 37° C.
(§6) Day 8-p24 assay: At day 8 the p24 production was measured using the HIV-1 p24 Antigen ELISA (Zeptometrix) according to manufacturer instructions.

[2] = test system: HIV-1 virus strain JR-FL; assay: Inhibition of infection of primary HIV-1 isolate JR-FL in PBMCs (p24 antigen ELISA); details: Human immunodeficiency virus 1, 192 h; PBMC infected with virus JR-FL, p24 production at day 8
Excerpt: as §1, §2, §3, §4, §5, §6

[3] = Inhibition of cell growth (GI50) in Diff.CD34+ cells, 7-d; details: Diff.CD34+ cells
[4] = test system: Diff.CD34+; assay: as above
[5] = 7-d, experiment of Aug. 6, 2007, concentration required for 50% inhibition of cell growth, read-out: GI50 (μM) Aug. 6, 2007 7-d
[6] = 7-d, experiment of Aug. 13 2007, concentration required for 50% inhibition of cell growth, read-out: GI50 (μM Aug. 13 2007 7-d)
[7] = average of the two 7-d experiments, read-out: AVG GI50

Compound	EC50 [1] [nM]	EC50 [2] [nM]	GI50 at 7 d [3, 5] [µM]	GI50 at 7 d [3, 6] [µM]	GI50 at 7 d [3, 7] [µM]	Selectivity Index [1]	GI50 [4, 6] [µM]	GI50 [4, 5] [µM]	GI50 [4, 7] [µM]
CCCCCCCCCCCCSC[C@H](COP(=O)(O)OC[C@H]1O[C@@H](n2cc(C)c(=O)[nH]c2=O)C[C@@H]1N=[N+]=[N-])OCCCCCCCCCC (mixture of isomers) [FOZ MIX Na, Phosphoric acid (2S,3S,5R)-3-azido-5-(5-methyl-2,4-dioxo-3,4-dihydro-2H-pyrimidin-1-yl)-tetrahydro-furan-2-ylmethyl ester (S)-2-decyloxy-3-dodecylsulfanyl-propyl ester sodium salt]	1410	1140	1.5	2.2	1.83				
Cc1cn([C@H]2C[C@H](N=[N+]=[N-])[C@@H](CO)O2)c(=O)[nH]c1=O [AZT, 3′-azido-3′-deoxythymidine, reference compound]	76	89.8	0.07	0.2	0.14	1.8			
CCCCCCCCCCCCSCC(COP(=O)(O)OC[C@H]1O[C@@H](n2cc(C)c(=O)[nH]c2=O)C[C@@H]1N=[N+]=[N-])OCCCCCCCCCC (stereo partly drawn) [FOZ ISO 850 Na, Phosphoric Acid (2S,3S,5R)-3-azido-5-(5-methyl-2,4-dioxo-3,4-dihydro-2H-pyrimidin-1-yl)-tetrahydro-furan-2-ylmethyl ester 2-decyloxy-3-dodecylsulfanyl-propyl ester]			4		4	14.3	> 10		
CCCCCCCCCCCCSCC(COP(=O)(O)OC[C@H]1O[C@@H](n2cc(C)c(=O)[nH]c2=O)C[C@@H]1N=[N+]=[N-])OCCCCCCCCCC (stereo partly drawn) [FOZ ISO 850, Phosphoric Acid (2S,3S,5R)-3-azido-5-(5-methyl-2,4-dioxo-3,4-dihydro-2H-pyrimidin-1-yl)-tetrahydro-furan-2-ylmethyl ester 2-decyloxy-3-dodecylsulfanyl-propyl ester]	279	474				11.06	4	2.2	3.09
CCCCCCCCCCCCSC[C@@H](COP(=O)(O)OC[C@H]1O[C@@H](n2cc(C)c(=O)[nH]c2=O)C[C@@H]1N=[N+]=[N-])OCCCCCCCCCC [FOZ ISO 851 Na, Phosphoric Acid (2S,3S,5R)-3-azido-5-(5-methyl-2,4-dioxo-3,4-dihydro-2H-pyrimidin-1-yl)-tetrahydro-furan-2-ylmethyl ester (R)-2-decyloxy-3-dodecylsulfanyl-propyl ester]						4.5	> 10	2.2	2.2
CCCCCCCCCCCCSC[C@@H](COP(=O)(O)OC[C@H]1O[C@@H](n2cc(C)c(=O)[nH]c2=O)C[C@@H]1N=[N+]=[N-])OCCCCCCCCCC [FOZ ISO 851, Phosphoric Acid (2S,3S,5R)-3-azido-5-(5-methyl-2,4-dioxo-3,4-dihydro-2H-pyrimidin-1-yl)-tetrahydro-furan-2-ylmethyl ester (R)-2-decyloxy-3-dodecylsulfanyl-propyl ester]	294	504				3.5	1.2	0.85	1.03
